Laboratory results published in patent publication US5395947A, “Platinum(II) complex and processes for preparing the same” (Sunkyong Industries, Ltd., priority 1991, dated 1995).

Legend:
[1] = tested on: murine leukemia L1210 cells; assay: Growth inhibition test on cultured murine leukemia L1210 cells; format: cell-based; conditions: 48 hours, 37° C., Trypan blue viability
How it was run: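 L1210 cells (1×10^5) exposed to graded compound concentrations in RPMI 1640 with 10% fetal calf serum, 37° C, 5% CO2, 48 h. Viability by 0.17% Trypan blue staining, relative to untreated control cells.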

[2] = tested on: murine leukemia L1210; assay: Antitumor activity test on murine leukemia L1210 in vivo; set-up: species or system male BDF1 mice; conditions: days 1, 5, 9
How it was run: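 Intraperitoneal L1210 model: 1×10^6 cells inoculated i.p. into 6-week-old male BDF1 mice (21±3 g) on day 0, seven per group. Compounds in 0.5% CMC given i.p. on days 1, 5 and 9; vehicle-only controls. T/C % from mean survival time of treated over control.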

[3] = tested on: human cancers; conditions: testicular, ovarian, bladder, head and neck cancer; cited from earlier work
[4] = Test for water solubility; format: physicochemical; conditions: 20° C.
Text: 3. Test for water solubility
A standard plot of UV absorbance(220 nm) vs. concentration was made; and employed to determine water-solubility.
The mixture was then passed through a 0.45 micron disposable membrane filter before dilution and UV measurement.

[5] = Test for nephrotoxicity; format: in vivo, male ICR mice
Procedure: 4. Test for nephrotoxicity
The compounds of the present invention were dissolved or suspended in 0.5% CMC solution(in water) and were administered intraperitoneally one time to 8-week-old male ICR mice weighing 30±3 g. Each treatment and control groups consisted of six mice.
The administration amount of the test compound was 1.5 times the optimum dose obtained in Table 2, or more. On days 1, 4 and 8 after administration, their blood was collected under ether anesthesia for measurement of blood urea nitrogen concentration (BUN value) and creatinine concentration.
A pair of kidneys were taken and, after immediate weighing, were stored in a 10% neutral buffered formalin solution. The body weight ratio shown in Table 5 is a ratio of the body weight measured on days 1, 4 and 8 from the administration of the compound to the body weight measured on the administration day.

[6] = tested on: ICR mice; assay: Acute toxicity test; format: in vivo; set-up: Lethality: unit not given here; conditions: for Lethality: 10080 min
How it was run: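 Male and female 7-week-old ICR mice, 6 per group, dosed intraperitoneally. Signs and survival followed for 7 days, with autopsy of animals that died.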

[7] = 150 mg/kg i.p. once, mean ± standard error
[8] = 150 mg/kg i.p. once, vs. administration day

N.N.[Cl][Pt][Cl] [cisplatin, cis-dichlorodiammineplatinum(II), reference compound]
IC50 (concentration required for 50% inhibition of growth) [1]: 0.06 µg/mL | T/C (%) ([2]; 1.5 mg/kg i.p.): 142% | T/C (%) ([2]; 3.1 mg/kg i.p.): 167% | T/C (%) ([2]; 6.2 mg/kg i.p.): 82% | T/C (%) ([2]; 12.5 mg/kg i.p.): toxic | T/C (%) ([2]; 25 mg/kg i.p.): toxic | effectiveness on human cancers [3]: effective on a variety of human cancers

CC1OC2C[NH2+][Pt-2]3([NH2+]CC2O1)[O]C(=O)C1(CCC1)C(=O)[O]3 [Example 23, cis-cyclobutane-1,1-dicarboxylato[(4S,5S)-4,5-bis(aminomethyl)-2-methyl-1,3-dioxolane]platinum(II)]
IC50 (concentration required for 50% inhibition of growth) [1]: 1.75 µg/mL | T/C (%) ([2]; 6.2 mg/kg i.p.): 108% | T/C (%) ([2]; 12.5 mg/kg i.p.): 115% | T/C (%) ([2]; 25 mg/kg i.p.): 150% | T/C (%) ([2]; 50 mg/kg i.p.): 201% | T/C (%) ([2]; 100 mg/kg i.p.): 254% | Solubility in water [4]: 22.1 mg/mL | BUN, 1st day ([5]; 150 mg/kg i.p. once): 24.8 mg/100 ml | BUN, 4th day ([5]; 150 mg/kg i.p. once): 32.1 mg/100 ml | BUN, 8th day ([5]; 150 mg/kg i.p. once): 42.0 mg/100 ml | Creatinine, 1st day ([5]; 150 mg/kg i.p. once): 0.26 mg/100 ml | Creatinine, 4th day ([5]; 150 mg/kg i.p. once): 0.30 mg/100 ml | Creatinine, 8th day ([5]; 150 mg/kg i.p. once): 0.28 mg/100 ml | Kidney wt (paired weight), 1st day [5, 7]: 492 ± 22.7 mg | Kidney wt (paired weight), 4th day [5, 7]: 535 ± 16.3 mg | Kidney wt (paired weight), 8th day [5, 7]: 527 ± 13.8 mg | body weight ratio (BWR), 1st day [5, 8]: 0.98 | body weight ratio (BWR), 4th day [5, 8]: 0.96 | body weight ratio (BWR), 8th day [5, 8]: 0.99

CCC1O[C@H](CN)[C@@H](CN)O1.O=C1C[O][Pt][O]1 [Example 6, (glycolato-O,O')[(4R,5R)-4,5-bis(aminomethyl)-2-ethyl-1,3-dioxolane]platinum(II)]
IC50 (concentration required for 50% inhibition of growth) [1]: 0.22 µg/mL | T/C (%) ([2]; 3.1 mg/kg i.p.): 113% | T/C (%) ([2]; 6.2 mg/kg i.p.): 162% | T/C (%) ([2]; 12.5 mg/kg i.p.): 205% | T/C (%) ([2]; 25 mg/kg i.p.): toxic | T/C (%) ([2]; 50 mg/kg i.p.): toxic | Solubility in water [4]: > 50 mg/mL | BUN, 1st day ([5]; 18.8 mg/kg i.p. once): 22.41 mg/100 ml | BUN, 4th day ([5]; 18.8 mg/kg i.p. once): 22.67 mg/100 ml | BUN, 8th day ([5]; 18.8 mg/kg i.p. once): 30.41 mg/100 ml | Number of dead mice for 7 days ([6]; female, 25.0 mg/kg i.p.): 0/6 | Number of dead mice, 1st day ([6]; female, 25.0 mg/kg i.p.): 0/6 | Number of dead mice for 7 days ([6]; female, 32.5 mg/kg i.p.): 1/6 | Number of dead mice, 1st day ([6]; female, 32.5 mg/kg i.p.): 0/6 | Number of dead mice, 3rd day ([6]; female, 32.5 mg/kg i.p.): 1/6 | Lethality ([6]; female, 32.5 mg/kg i.p.): 16.7 | Number of dead mice for 7 days ([6]; female, 42.3 mg/kg i.p.): 3/6 | Number of dead mice, 1st day ([6]; female, 42.3 mg/kg i.p.): 0/6 | Number of dead mice, 3rd day ([6]; female, 42.3 mg/kg i.p.): 1/6 | Number of dead mice, 4th day ([6]; female, 42.3 mg/kg i.p.): 1/5 | Number of dead mice, 5th day ([6]; female, 42.3 mg/kg i.p.): 1/4 | Lethality ([6]; female, 42.3 mg/kg i.p.): 50.0 | Number of dead mice for 7 days ([6]; female, 55.0 mg/kg i.p.): 5/6 | Number of dead mice, 1st day ([6]; female, 55.0 mg/kg i.p.): 0/6 | Number of dead mice, 3rd day ([6]; female, 55.0 mg/kg i.p.): 4/6 | Number of dead mice, 4th day ([6]; female, 55.0 mg/kg i.p.): 1/2 | Lethality ([6]; female, 55.0 mg/kg i.p.): 83.3 | Number of dead mice for 7 days ([6]; female, 71.4 mg/kg i.p.): 6/6 | Number of dead mice, 1st day ([6]; female, 71.4 mg/kg i.p.): 0/6 | Number of dead mice, 3rd day ([6]; female, 71.4 mg/kg i.p.): 4/6 | Number of dead mice, 4th day ([6]; female, 71.4 mg/kg i.p.): 2/2 | Lethality ([6]; female, 71.4 mg/kg i.p.): 100.0 | Number of dead mice for 7 days ([6]; male, 25.0 mg/kg i.p.): 0/6 | Number of dead mice, 1st day ([6]; male, 25.0 mg/kg i.p.): 0/6 | Number of dead mice for 7 days ([6]; male, 32.5 mg/kg i.p.): 0/6 | Number of dead mice, 1st day ([6]; male, 32.5 mg/kg i.p.): 0/6 | Number of dead mice, 3rd day ([6]; male, 32.5 mg/kg i.p.): 1/6 | Lethality ([6]; male, 32.5 mg/kg i.p.): 16.7 | Number of dead mice for 7 days ([6]; male, 42.3 mg/kg i.p.): 4/6 | Number of dead mice, 1st day ([6]; male, 42.3 mg/kg i.p.): 0/6 | Number of dead mice, 3rd day ([6]; male, 42.3 mg/kg i.p.): 1/6 | Number of dead mice, 4th day ([6]; male, 42.3 mg/kg i.p.): 2/5 | Number of dead mice, 5th day ([6]; male, 42.3 mg/kg i.p.): 1/3 | Lethality ([6]; male, 42.3 mg/kg i.p.): 66.7 | Number of dead mice for 7 days ([6]; male, 55.0 mg/kg i.p.): 6/6 | Number of dead mice, 1st day ([6]; male, 55.0 mg/kg i.p.): 0/6 | Number of dead mice, 3rd day ([6]; male, 55.0 mg/kg i.p.): 4/6 | Number of dead mice, 4th day ([6]; male, 55.0 mg/kg i.p.): 1/2 | Number of dead mice, 5th day ([6]; male, 55.0 mg/kg i.p.): 1/1 | Lethality ([6]; male, 55.0 mg/kg i.p.): 100.0 | Number of dead mice for 7 days ([6]; male, 71.4 mg/kg i.p.): 6/6 | Number of dead mice, 1st day ([6]; male, 71.4 mg/kg i.p.): 0/6 | Number of dead mice, 3rd day ([6]; male, 71.4 mg/kg i.p.): 4/6 | Number of dead mice, 4th day ([6]; male, 71.4 mg/kg i.p.): 2/2 | Lethality ([6]; male, 71.4 mg/kg i.p.): 100.0
